# Patent US10392390B2, “5-HT2C receptor agonists and compositions and methods of use” (Arena Pharmaceuticals, Inc., priority 2015, dated 2019)
# Tests used:
# 5-HT2C receptor [1] = biological target: T1, 5-HT2C receptor (Homo sapiens, UniProt P28335); test: IP accumulation assay in HEK293 cells expressing recombinant 5-HT2 receptors; format: cell-based; settings: 2 h at 37° C.
# T1 construct: expressed in transfected cells; host or cells: HEK293
# T1 sequence (P28335 33-458): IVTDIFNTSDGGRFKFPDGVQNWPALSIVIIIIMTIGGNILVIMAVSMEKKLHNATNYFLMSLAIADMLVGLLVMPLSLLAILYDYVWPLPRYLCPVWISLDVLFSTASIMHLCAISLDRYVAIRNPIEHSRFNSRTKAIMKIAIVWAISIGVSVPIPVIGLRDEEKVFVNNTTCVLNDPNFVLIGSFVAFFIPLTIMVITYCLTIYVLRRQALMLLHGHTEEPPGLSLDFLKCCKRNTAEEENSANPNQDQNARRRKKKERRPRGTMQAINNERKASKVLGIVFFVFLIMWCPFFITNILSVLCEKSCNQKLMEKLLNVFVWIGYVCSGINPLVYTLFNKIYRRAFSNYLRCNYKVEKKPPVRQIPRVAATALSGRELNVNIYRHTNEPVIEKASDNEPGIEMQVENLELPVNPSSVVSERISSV
# Method: (§1) HEK293 cells expressing recombinant 5-HT2 receptors were added to sterile poly-D-lysine-coated 96-well microtiter plates (35,000 cells/well) and labeled with 0.6 μCi/well of [^3H]inositol in myoinositol-free DMEM for 18 h. Unincorporated [^3H]inositol was removed by aspiration and replaced with fresh myoinositol-free DMEM supplemented with LiCl (10 mM final) and pargyline (10 μM final). Serially diluted test compounds were then added and incubation was conducted for 2 h at 37° C. Incubations were then terminated by lysing cells with the addition of ice-cold 0.1 M formic acid followed by freezing at −80° C. After thawing, total [^3H]inositol phosphates were resolved from [^3H]inositol using AG1-X8 ion exchange resin (Bio-Rad) and [^3H]inositol phosphates were measured by scintillation counting using a Perkin Elmer TopCount® scintillation counter. All EC50 determinations were performed using 10 different concentrations and triplicate determinations were made at each test concentration.
# 5-HT2C receptor [2] = biological target: T1, 5-HT2C receptor; test: Radioligand binding assay, [125I]DOI competition; settings: HEK293 cell membranes, read-out: DOI Binding Ki 2C
# Method: (§2) HEK293 cells stably expressing recombinant 5-HT2 receptors were harvested, suspended in ice-cold phosphate buffered saline, pH 7.4 (PBS), and then centrifuged at 48,000 g for 20 min at 4° C. The resulting cell pellet was then re-suspended in wash buffer containing 20 mM HEPES, pH 7.4 and 0.1 mM EDTA, homogenized on ice using a Brinkman Polytron, and centrifuged (48,000 g for 20 min at 4° C.). The pellet was then resuspended in 20 mM HEPES, pH 7.4, homogenized on ice, and centrifuged (48,000 g for 20 min at 4° C.). Crude membrane pellets were stored at −80° C. until used for radioligand binding assays.
# Radioligand binding assays were performed using the commercially available 5-HT2 receptor agonist [^125I]DOI as the radioligand and nonspecific binding was determined in the presence of unlabeled DOI at a saturating concentration of 10 μM. Competition experiments utilized 5-HT2 receptor expressing HEK293 cell membranes obtained as described in Example 3 (15-25 μg membrane protein/well) and radioligand at final assay concentrations of 0.4 to 0.6 nM. […] Finally, 25 μL of BetaScint™ scintillation cocktail was added to each well and the plates were counted in a Packard TopCount® scintillation counter. […]
# 5-HT2A receptor [3] = biological target: T2, 5-HT2A receptor (Homo sapiens, UniProt P28223); test: Radioligand binding assay, [125I]DOI competition; settings: HEK293 cell membranes, read-out: DOI Binding Ki 2A
# T2 construct: expressed in transfected cells; host or cells: HEK293
# Method: as §2
# (§3) Experiments comprised addition of 95 μL, of assay buffer (20 mM HEPES, pH 7.4, 10 mM MgCl2), 50 μL, of membranes, 50 μL, of radioligand stock, and 5 μL of test compound diluted in assay buffer to 96-well microtiter plates, which were then incubated for 1 h at room temperature. Assay incubations were terminated by rapid filtration through PerkinElmer F/C filtration plates under reduced pressure using a 96-well Packard filtration apparatus, followed by washing three times with ice cold assay buffer. Plates were then dried at 45° C. for a minimum of 2 h. Finally, 25 μL of BetaScint™ scintillation cocktail was added to each well and the plates were counted in a Packard TopCount® scintillation counter. […]
# 5-HT2B receptor = biological target: T3, 5-HT2B receptor (Homo sapiens, UniProt P41595); test: Radioligand binding assay, [125I]DOI competition; settings: HEK293 cell membranes, read-out: DOI Binding Ki 2B
# T3 construct: expressed in transfected cells; host or cells: HEK293
# Method: as §2, §3
# 5-HT2A receptor [4] = biological target: T2, 5-HT2A receptor; test: IP accumulation assay in HEK293 cells expressing recombinant 5-HT2 receptors; format: cell-based; settings: 2 h at 37° C.
# Method: as §1
# [5] = reports that led to withdrawal in 1998; cited from earlier work
# [6] = a patient with Lennox-Gastaut syndrome; cited from earlier work
# [7] = cited from earlier work
# [8] = cited from earlier work; remark: listed apart in the source
# [9] = one study, patients without diabetes; cited from earlier work
# [10] = pivotal phase 3 program, up to two years
# [11] = top quartile of patients, second phase 3 trial
# T2 sequence (P28223 whole entry): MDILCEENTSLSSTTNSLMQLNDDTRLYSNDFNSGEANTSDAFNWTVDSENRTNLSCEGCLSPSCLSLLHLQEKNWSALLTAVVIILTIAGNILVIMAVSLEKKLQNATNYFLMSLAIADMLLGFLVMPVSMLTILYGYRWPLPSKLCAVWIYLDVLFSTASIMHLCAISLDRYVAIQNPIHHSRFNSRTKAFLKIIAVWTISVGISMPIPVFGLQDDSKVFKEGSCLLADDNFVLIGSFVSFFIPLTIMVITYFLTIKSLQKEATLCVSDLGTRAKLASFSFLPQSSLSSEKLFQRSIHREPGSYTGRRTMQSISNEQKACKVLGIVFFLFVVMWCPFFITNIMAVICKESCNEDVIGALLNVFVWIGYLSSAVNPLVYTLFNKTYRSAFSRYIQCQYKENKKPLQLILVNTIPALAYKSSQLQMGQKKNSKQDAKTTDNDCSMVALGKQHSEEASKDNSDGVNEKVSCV
# T3 sequence (P41595 whole entry): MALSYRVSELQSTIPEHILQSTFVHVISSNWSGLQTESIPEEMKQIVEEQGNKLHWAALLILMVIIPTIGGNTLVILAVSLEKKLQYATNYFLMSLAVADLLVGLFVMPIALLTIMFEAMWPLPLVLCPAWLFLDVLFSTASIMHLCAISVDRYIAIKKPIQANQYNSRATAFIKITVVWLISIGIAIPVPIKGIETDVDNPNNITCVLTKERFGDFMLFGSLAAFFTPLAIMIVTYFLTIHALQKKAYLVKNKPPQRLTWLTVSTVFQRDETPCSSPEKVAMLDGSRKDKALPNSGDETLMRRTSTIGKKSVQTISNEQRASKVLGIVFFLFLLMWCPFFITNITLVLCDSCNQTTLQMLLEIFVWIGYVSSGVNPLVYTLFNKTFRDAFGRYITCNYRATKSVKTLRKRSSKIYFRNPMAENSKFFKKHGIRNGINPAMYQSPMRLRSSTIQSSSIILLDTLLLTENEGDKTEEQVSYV
smiles,measurement,setting,value
"CCC1CN2CCNCc3ccc(C(=O)NCC(F)F)c1c32 (single isomer, unassigned) [1st eluting enantiomer in example 1.5, N-(2,2-difluoroethyl)-7-ethyl-1,2,3,4,6,7-hexahydro-[1,4]diazepino[6,7,1-hi]indole-8-carboxamide]",EC50,5-HT2C receptor [1],15200 nM
"CCC1CN2CCNCc3ccc(C(=O)NCC(F)F)c1c32 (single isomer, unassigned) [2nd eluting enantiomer in example 1.5, N-(2,2-difluoroethyl)-7-ethyl-1,2,3,4,6,7-hexahydro-[1,4]diazepino[6,7,1-hi]indole-8-carboxamide]",Ki,5-HT2C receptor [2],19.7 nM
same,Ki,5-HT2A receptor [3],6580 nM
same,Ki,5-HT2B receptor,92300 nM
same,EC50,5-HT2C receptor [1],7.09 nM
"CC1(C)CN2CCNCc3ccc(C(=O)NCC(F)F)c1c32 [Compound 6, N-(2,2-difluoroethyl)-7,7-dimethyl-1,2,3,4,6,7-hexahydro-[1,4]diazepino[6,7,1-hi]indole-8-carboxamide]",EC50,5-HT2C receptor [1],195 nM
"O=C(NCC(F)F)c1ccc2c3c1C1(CCC1)CN3CCNC2 [Compound 7, N-(2,2-difluoroethyl)-2,3,4,6-tetrahydro-1H-spiro[[1,4]diazepino[6,7,1-hi]indole-7,1′-cyclobutane]-8-carboxamide]",Ki,5-HT2C receptor [2],36.6 nM
same,Ki,5-HT2A receptor [3],6750 nM
same,Ki,5-HT2B receptor,6810 nM
same,EC50,5-HT2C receptor [1],17.7 nM
same,EC50,5-HT2A receptor [4],160 nM
CCN[C@@H](C)Cc1cccc(C(F)(F)F)c1 [d-fenfluramine],patients with reported cardiac valve defects,[5],up to one third
CCNC(C)Cc1cccc(C(F)(F)F)c1 (stereo not drawn) [fenfluramine],reduction in seizure frequency during treatment,[6],two-thirds
"C[C@H]1CNCCc2ccc(Cl)cc21 [lorcaserin, (R)-8-chloro-1-methyl-2,3,4,5-tetrahydro-1H-3-benzazepine]",excess body weight lost,"[7]; first phase 3 trial, based on a normal BMI of 25",about one-third
same,patients who achieved at least 5% weight loss,[7]; [10],About two-thirds
same,patients who achieved at least 10% weight loss,[7]; [10],over one-third
same,average weight loss,[7]; [11],35 pounds
same,"average weight loss, of body weight",[7]; [11],16%
same,reduction in HbA1c,"[8]; 10 mg BID, type 2 diabetes",0.9%
same,decrease of mean daily doses of sulfonylureas and thiazolidinediones,[8]; patients with type 2 diabetes,16-24%
same,insulin resistance (HOMA-IR) change,[9],−0.4
